Patent publication US20080004272A1, “Compositions and methods for modulating gated ion channels” (PainCeptor Pharma Corporation, priority 2006, published 2008)

How the values were obtained:
ASIC1a [1] = target: T1, ASIC1a (Homo sapiens, UniProt P78348); assay: Calcium imaging of MES-induced calcium response (FLIPR); assay type: cell-based; set-up: host or cells: HEK293; conditions: ASIC1a expressing HEK293 cells, MES-induced calcium response; read-out: IC50 (FLIPR)
T1 sequence (P78348 1-528): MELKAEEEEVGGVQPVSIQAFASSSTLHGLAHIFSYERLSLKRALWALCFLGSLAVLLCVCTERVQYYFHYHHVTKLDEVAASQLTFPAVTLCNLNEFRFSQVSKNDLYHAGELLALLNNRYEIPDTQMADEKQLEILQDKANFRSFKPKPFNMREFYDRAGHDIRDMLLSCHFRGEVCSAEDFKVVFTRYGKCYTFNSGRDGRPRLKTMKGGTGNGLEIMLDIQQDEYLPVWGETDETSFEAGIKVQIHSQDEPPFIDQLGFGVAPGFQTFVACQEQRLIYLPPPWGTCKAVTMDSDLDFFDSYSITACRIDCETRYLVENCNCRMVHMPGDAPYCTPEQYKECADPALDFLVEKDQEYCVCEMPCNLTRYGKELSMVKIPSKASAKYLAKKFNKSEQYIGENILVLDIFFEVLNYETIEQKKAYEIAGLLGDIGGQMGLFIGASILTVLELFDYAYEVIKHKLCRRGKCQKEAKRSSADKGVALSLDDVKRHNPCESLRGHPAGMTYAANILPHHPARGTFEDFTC
Experimental: […] Confluency of cells should be 80-90% on day of plating. Cells are rinsed with 10 ml of PBS and cells are re-suspended by addition of culture medium and trituration with a 25 ml pipette.
The cells are seeded at a density of approximately 1×10^6 cells/ml (100 μl/well) in black-walled, clear bottom, 96-well plates pre-treated with 10 mg/l poly-D-lysin (75 μl/well for ≧30 min). Plated cells are allowed to proliferate for 24 h before loading with dye.
Fluo-4/AM (1 mg, Molecular Probes) is dissolved in 912 μl DMSO. The Fluo-4/AM stock solution (1 mM) is diluted with culture medium to a final concentration of 2 μM (loading solution).
The culture medium is aspirated from the wells, and 50 μl of the Fluo-4/AM loading solution is added to each well. The cells are incubated at 37° C. for 30 min.
Following the second wash, 100 μl modified Assay Buffer is added to each well and the fluorescence is measured in FLIPR™ or FlexStation™ (Molecular Devices, USA), or any other suitable equipment known to the skilled in the art.
Temperature: Room temperature (20-22° C.)
First addition: 50 μl test solution at a rate of 30 μl/sec and a starting height of […]
Second addition: 50 μl MES solution (20 mM, 5 mM final concentration) at a rate of 35 μl/sec and a starting height of 150 μl.
Reading intervals: pre-incubation−10 sec×7 and 3 sec×3 antagonist phase−3 sec×7 and 10 sec×12
Addition plates (compound test plate and MES plate) are placed on the right and left positions in the FLIPR tray, respectively. Cell plates are placed in the middle position and the ASIC1a program is effectuated. FLIPR will then take the appropriate measurements in accordance with the interval settings above. Fluorescence obtained after stimulation is corrected for the mean basal fluorescence (in modified Assay Buffer).
The MES-induced peak calcium response, in the presence of test substance, is expressed relatively to the MES response alone. Test substances that block the MES-induced calcium response are re-tested in triplicates.

ASIC1a [2] = target: T1, ASIC1a; assay: Two-electrode voltage clamp in Xenopus laevis oocytes (Xo), acid-induced currents; assay type: cell-based; set-up: expressed in transfected cells; host or cells: Xenopus laevis oocytes (nuclear microinjection of expression vector such as pcDNA3); conditions: Xenopus oocytes; for inhibition at 50 µM: read-out: % inh. at 50 μM (Xo)
Experimental: Two-electrode voltage clamp electrophysiological assays in Xenopus laevis oocytes expressing gated ion channels are performed as follows:
Oocytes are surgically removed from adult Xenopus laevis and treated for 2 h at room temperature with 1 mg/ml type I collagenase (Sigma) in Barth's solution under mild agitation. Selected oocytes at stage IV-V are defolliculated manually before nuclear microinjection of 2.5-5 ng of a suitable expression vector, such as pcDNA3, comprising the nucleotide sequence encoding a gated ion channel subunit protein. In such an experiment, the oocytes express homomultimeric proton-gated ion channels on their surface. In an alternate experiment, one, two, three or more vectors comprising the coding sequences for distinct gated ion channel subunits are co-injected in the oocyte nuclei. In the latter case, oocytes express heteromultimeric proton-gated ion channels. For example, ASIC2a and/or ASIC3 subunits in pcDNA3 vector are co-injected at a 1:1 cDNA ratio. After 2-4 days of expression at 19° C. in Barth's solution containing […] gentamicin and 1.8 mM CaCl2, gated ion channels are activated by applying an acidic solution (pH<7) and currents are recorded in a two electrode voltage-clamp configuration, using an OC-725B amplifier (Warner Instruments). Currents are acquired and digitized at 500 Hz on an Apple Imac G3 computer with an A/D NB-MIO-16XL interface (National Instruments) and recorded traces are post-filtered at 100 Hz in Axograph (Axon Instruments) (Neher, E. and Sakmann, B. (1976) Nature 260:799-802). Once impaled with the microelectrodes, oocytes are continuously superfused at 10-12 ml/min with a modified Ringer's solution containing 97 mM NaCl, 2 mM KCl, 1.8 mM CaCl2, and 10 mM HEPES brought to pH 7.4 with NaOH (Control Ringer). Test Ringer solution is prepared by replacing HEPES with MES and adjusting the pH to the desired acidic value. Compounds of the present invention are prepared in both the Control and Test Ringer solutions and applied to oocytes at room temperature through a computer-controlled switching valve system. Osmolarity of all solutions is adjusted to 235 mOsm with choline chloride. Similarly, recordings can also be acquired in an automated multichannel oocytes system as the OpusExpress™ (Molecular Devices, Sunnyvale, USA).
FIGS. 1A and 2A illustrate the inhibitory effects of Compounds 203 and 206 on acid-induced activation of recombinant homomeric hASIC1a channels.

Row | Compound | IC50 (ASIC1a [1]) [µM] | inhibition at 50 µM (ASIC1a [2]) [%] | inhibition at 30 µM (ASIC1a [2]; 30 μM, read-out: % inh. at 30 μM (Xo)) [%] | IC50 (ASIC1a [2]; table value, read-out: IC50 (Xo)) [µM]
1 | CCOC(=O)N1CCc2c(-c3ccccc3)ccc([N+](=O)[O-])c2C1 [Compound 161] | > 70 | 20 to 40 |  | 
2 | COc1ccc(C=O)cc1-c1cc2c(c3c1CCN(C)C3)NC(=O)/C2=N/O [Compound 30] | > 70 | 40 to 60 |  | 
3 | COC(=O)c1cc(-c2ccccc2)c2c(c1C(=O)OC)CN(C)CC2 [Compound 180] | > 70 | < 25 |  | 
4 | CCOC(=O)/C=C1/C(=O)Nc2c1cc(-c1ccccc1)c1c2CN(C)CC1 [Compound 92] | > 70 | < 25 |  | 
5 | CCOC(=O)C(=O)Nc1ccc(-c2ccccc2)c2c1CN(C)CC2 [Compound 162] | > 70 | < 25 |  | 
6 | CCOC(=O)CNc1ccc(-c2ccccc2)c2c1CN(C(=O)OCC)CC2 [Compound 140] | > 70 | < 25 |  | 
7 | CN1CCc2c(-c3ccccc3)ccc(NC(=O)CCO)c2C1 [Compound 131] | > 70 | < 25 |  | 
8 | CN(C)/C=C1/C(=O)Nc2c1cc(-c1ccccc1)c1c2CN(C)CC1 [Compound 95] | > 70 | < 25 |  | 
9 | C/C=C1/C(=O)Nc2c1cc(-c1ccccc1)c1c2CN(C)CC1 [Compound 89] | > 70 | < 25 |  | 
10 | COC(=O)c1ccc(-c2ccccc2)c2c1CN(C(=O)OC(C)(C)C)CC2 [Compound 177] | > 70 | < 25 |  | 
11 | CN1CCc2c(-c3ccccc3)ccc(CN)c2C1 [Compound 115] | > 70 | < 25 |  | 
12 | CCOC(=O)CN(Cc1ccccc1)Cc1ccc(-c2ccccc2)c2c1CN(C(=O)OCC)CC2 [Compound 122] |  | 20 to 40 |  | 
13 | COc1ccc(F)cc1-c1cc(C#N)c(N2C(=O)CCC2=O)c2c1CCN(C)C2 [Compound 211] |  | < 25 |  | 
14 | CCN(CC)C(=O)c1cc(-c2cc(F)ccc2OC)cc(C)c1N [Compound 188, 4-Amino-5′-fluoro-2′-methoxy-5-methyl-biphenyl-3-carboxylic acid diethylamide] |  | < 25 |  | 
15 | CCOC(=O)CNc1ccc(-c2ccccc2)c2c1CN(C)CC2 [Compound 204, (2-Methyl-5-phenyl-1,2,3,4-tetrahydro-isoquinolin-8-ylamino)-acetic acid ethyl ester] |  |  |  | > 50
16 | COc1ccc(F)cc1Oc1ccc([N+](=O)[O-])c2c1CCN(C)C2 [Compound 10] |  | < 25 |  | 
17 | CN1CCc2c(-c3ccccc3)cc3c(c2C1)NC(=O)/C3=N/OC1CCCCO1 (stereo not drawn) [Compound 61] |  |  | > 50 | 
18 | COc1ccc(F)cc1-c1cc(C#N)c(N(C(C)=O)C(C)=O)c2c1CCN(C)C2 [Compound 194, N-Acetyl-N-[7-cyano-5-(5-fluoro-2-methoxy-phenyl)-2-methyl-1,2,3,4-tetrahydro-isoquinolin-8-yl]-acetamide] |  | < 25 |  | 
19 | CCOC(=O)CC(=O)NN=C1C(=O)Nc2c1cc(-c1ccccc1)c1c2CN(C)CC1 [Compound 110] |  | < 25 |  | 
20 | COCCOCN1C(=O)/C(=N/O)c2cc(-c3ccccc3)c3c(c21)CN(C)CC3 [Compound 66] |  | 20 to 40 |  | 
21 | COc1ccc(F)cc1-c1cc(/C(N)=N/O)c(N)c2c1CCN(C)C2 [Compound 208] |  | 20 to 40 |  | 
22 | COc1ccc(F)cc1Nc1ccc([N+](=O)[O-])c2c1CCN(C)C2 [Compound 6] |  | < 25 |  | 
23 | CCOC(=O)N1CCc2c(-c3ccccc3)ccc(CN(CC(=O)O)Cc3ccccc3)c2C1 [Compound 123] |  | < 25 |  | 
24 | CC(C)(C)OC(=O)N1CCc2c(-c3ccccc3)ccc(N)c2C1 [Compound 168] |  | < 25 |  | 
25 | CCOC(C)O/N=C1/C(=O)Nc2c1cc(-c1cc(F)ccc1OC)c1c2CN(C)CC1 (stereo not drawn) [Compound 67] |  | < 25 |  | 
26 | COc1ccc(F)cc1Oc1cc2c(c3c1CCN(C)C3)NC(=O)C2=O [Compound 13] |  | < 25 |  | 
27 | COc1ccc(F)cc1-c1cc(C#N)c(NC(C)=O)c2c1CCN(C)C2 [Compound 195, N-[7-Cyano-5-(5-fluoro-2-methoxy-phenyl)-2-methyl-1,2,3,4-tetrahydro-isoquinolin-8-yl]-acetamide] |  | 25 to 40 |  | 

Now from value to molecule, other results behind:

Row | IC50 (ASIC1a [1]) [µM] | inhibition at 50 µM (ASIC1a [2]) [%] | inhibition at 30 µM (ASIC1a [2]; 30 μM, read-out: % inh. at 30 μM (Xo)) [%] | Compound | IC50 (ASIC1a [2]; table value, read-out: IC50 (Xo)) [µM]
28 | > 70 | < 25 |  | CN1CCc2c(-c3ccccc3)cc3c(c2C1)NC(=O)/C3=C/c1ccccc1C(=O)O [Compound 82] | 
29 | > 70 | 20 to 40 |  | CN1CCc2c(-c3ccccc3)cc3c(c2C1)NC(=O)C3 [Compound 81] | 
30 | > 70 | 20 to 40 |  | CN1CCc2c(-c3ccccc3)cc3c(=O)[nH]c(=O)[nH]c3c2C1 [Compound 98] | 
31 | > 70 | < 25 |  | CN1CCc2c(-c3ccccc3)ccc(Nc3ncccc3C(=O)O)c2C1 [Compound 150] | 
32 | > 70 | < 25 |  | CN1CCc2c(-c3ccccc3)cc3c(c2C1)NC(=O)/C3=C/c1cccc(O)c1 [Compound 85] | 
33 | 40 to 60 | < 25 |  | CN1CCc2c(-c3ccccc3)cc3c(c2C1)NC(=O)/C3=N\NC(N)=O [Compound 103] | 
34 | > 70 | < 25 |  | CN1CCc2c(-c3ccccc3)cc3c(O)cc(=O)[nH]c3c2C1 [Compound 94] | 
35 | > 70 | < 25 |  | CN1CCc2c(-c3ccccc3)cc3c(c2C1)C(=O)N(N)C3=O [Compound 80] | 
36 |  | < 25 |  | CN1CCc2c(-c3ccccc3)cc3[nH]c(=O)c(=O)[nH]c3c2C1 [Compound 100] | 
37 |  | < 25 |  | CC(C)(C)OC(=O)N1CCc2c(-c3ccccc3)ccc(NCC(=O)Oc3ccccc3)c2C1 [Compound 170] | 
38 |  | < 25 |  | CN1CCc2c(-c3ccccc3)cc3c(c2C1)NC(=O)C3=NNC(=O)c1ccc(O)cc1O [Compound 113] | 
39 |  | < 25 |  | CC(=O)NN=C1C(=O)Nc2c1cc(-c1ccccc1)c1c2CN(C)CC1 [Compound 112] | 
40 |  | 20 to 40 |  | CN1CCc2c(-c3ccccc3)cc3c(c2C1)NC(=O)C3=NNC(=O)C(N)=O [Compound 107] | 
41 |  | < 25 |  | CN1CCc2c(-c3ccccc3)ccc(CNC(=O)c3ccccc3)c2C1 [Compound 116] | 
